Data reported in EP1137645B1, “ALPHA-METHYLBENZYL-CONTAINING THIOUREA INHIBITORS OF HERPES VIRUSES CONTAINING A […] GROUP” (Wyeth, priority 1998, dated 2000).
Converted amounts (≈) assume the structure as drawn. Read-outs that look alike come from different tables or passages of the source.

Key:
[1] = tested on: HCMV recombinant mutant virus whose genome contains the prokaryotic beta-glucuronidase gene; assay: microbe, parasite or virus in culture; assay type: cell-based, human cytomegalovirus; conditions: Human betaherpesvirus 5, Fibroblast
In short: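 Antiviral IC50 estimated from reduced reporter activity across compound amounts: lysates prepared 96 h after infection were tested with p-nitrophenyl- or methylumbelliferyl-glucuronide. Cells were human foreskin fibroblasts, infected alongside inhibitor with HCMV (e.g. RV145) expressing viral promoter-driven beta-glucuronidase.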

[2] = tested on: HSV- I; assay: HSV antiviral (ELISA) assay; assay type: cell-based; conditions: read-out: IC50 (ug/ml) HSV
Procedure: Vero cells (ATCC #CCL-81) are plated on 96-well tissue culture plates at 3.5x10^4 cells per 100µl tissue culture DMEM (Dulbecco's modified Eagle media) supplemented with 2% fetal bovine serum (FBS) in each well. After overnight incubation @ 37°C (in 5% CO2) and 30 minutes prior to infection with HSV- I (multiplicity of infection equal to 0.006), cells are either untreated, or treated with test compound (multiple concentrations) or reference standard drug control. After approximately 24 hours post-infection incubation @ 37°C (in 5% CO2), cells are fixed for ELISA assay. The primary antibody is murine anti-HSV glycoprotein D monoclonal primary antibody and the secondary antibody is goat anti-mouse IgG linked to β-galactosidase. Thus the extent of viral replication is determined by assessing β-galactosidase activity by quantifying the generation of the 4-methyl umbelliferone fluorescent cleavage product after addition of the methyl umbelliferyl-β-D-galactoside (Sigma #M1633) substrate on a microfluorimeter (365nm for excitation and 450nm for emission). Antiviral activity (IC50) of the test compound is determined by comparing the flourescence obtained in absence of compound to that obtained in the presence of compound.

[3] = tested on: VZV strain Ellen; assay: VZV antiviral (ELISA) assay; assay type: cell-based
In short: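 HFF cells infected with VZV Ellen at multiplicity below 0.1 overnight, then mixed infected/uninfected cells seeded with compound in DMEM/2% FBS and incubated three days at 37°C, 5% CO2.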

[4] = Human alphaherpesvirus 3, VZV strain Ellen, HFF cells, ELISA, read-out: IC50 (ug/ml) VZV
[5] = read-out: IC50 ug/ml HCMV, HCMV, human foreskin fibroblasts
[6] = Human alphaherpesvirus 3, HFF, read-out: % inhibition 10 ug/ml VZV
[7] = Human alphaherpesvirus 3, HFF, read-out: IC50 (ug/ml) VZV
[8] = Human alphaherpesvirus 3, HFF, read-out: IC50 (ug/ml) VZV, VZV strain Ellen, HFF cells, ELISA
[9] = Human alphaherpesvirus 3, read-out: % inhibition 10 ug/ml VZV, 10 ug/ml, VZV strain Ellen, HFF cells, ELISA

Row | Compound | IC50 ([1]; read-out: IC50 ug/ml HCMV) [µg/mL] | IC50 ([2]; HSV- I, Vero cells, ELISA) [µg/mL] | IC50 [3, 4] [µg/mL] | IC50 [1, 5] [µg/mL] | inhibition at 10 µg/mL [3, 6] [%] | IC50 [3, 7] [µg/mL] | IC50 ([2]; Vero) [µg/mL] | IC50 [3, 8] [µg/mL] | inhibition at 10 µg/mL [3, 9] [%]
1 | COc1ccc(NC(=S)Nc2ccc(NC(=O)c3ccccc3F)cc2)cc1F [Example 995, 2-Fluoro-N-{4-[3-(3-fluoro-4-methoxy-phenyl)-thioureido]-phenyl}-benzamide] | > 10 | > 10 | > 10 |  |  |  |  |  | 
2 | COc1cc(OC)c(NC(=S)Nc2ccc(NC(=O)c3cccc(F)c3F)cc2)cc1Cl [Example 186, N-{4-[3-(5-Chloro-2,4-dimethoxy-phenyl)-thioureido]-phenyl}-2,3-difluoro-benzamide] |  | 0.2 (≈ 0.418 µM) |  | > 10 | 52 | > 10 |  |  | 
3 | O=C(Nc1ccc(NC(=S)NC(Cc2ccccc2)c2ccc(F)cc2)cc1)c1ccccc1F (stereo not shown) [Example 774, 2-Fluoro-N-(4-{3-[1-(4-fluoro-phenyl)-2-phenyl-ethyl]-thioureido}-phenyl)-benzamide] |  |  |  | 0.5 (≈ 1.03 µM) |  |  | > 10 | > 7.5 | 
4 | COc1ccc(C(=O)Nc2ccc(NC(=S)Nc3ccc(OC)c(Cl)c3)cc2)cc1 [Example 820, N-{4-[3-(3-Chloro-4-methoxy-phenyl)-thioureido]-phenyl}-4-methoxy-benzamide] |  | 4 (≈ 9.05 µM) |  | 8 (≈ 18.1 µM) | 20 | > 10 |  |  | 
5 | COc1cc(OC)c(NC(=S)Nc2ccc(NC(=O)c3ccc4ccccc4c3)cc2)cc1Cl [Example 156, Naphthalene-2-carboxylic acid {4-[3-(5-chloro-2,4-dimethoxy-phenyl)-thioureido]-phenyl}-amide] |  | 2 (≈ 4.07 µM) |  | 10 (≈ 20.3 µM) | 17 | > 10 |  |  | 
6 | C[S+]([O-])c1ccc(NC(=S)Nc2ccc(NC(=O)c3c(F)cccc3F)cc2)cc1Cl (stereo not shown) [Example 392, N-{4-[3-(3-Chloro-4-methanesulfinyl-phenyl)-thioureido]-phenyl}-2,6-difluoro-benzamide] |  | > 10 |  | 0.5 (≈ 1.04 µM) | 92 | 2 (≈ 4.17 µM) |  |  | 
7 | O=C(Nc1ccc(NC(=S)Nc2cccc(F)c2)cc1)c1ccccc1F [Example 962, 2-Fluoro-N-{4-[3-(3-fluoro-phenyl)-thioureido]-phenyl}-benzamide] | > 10 | > 10 | > 10 |  |  |  |  |  | 10
8 | O=C(Nc1ccc(NC(=S)Nc2ccc(F)c(Cl)c2)cc1)c1ccccc1F [Example 922, N-{4-[3-(3-Chloro-4-fluoro-phenyl)-thioureido]-phenyl}-2-fluoro-benzamide] |  | 1 (≈ 2.39 µM) |  | > 10 | 40 | > 10 |  |  | 
9 | COc1cccc(C(=O)Nc2ccc(NC(=S)NC(C)c3ccc(F)cc3)cc2)c1 (stereo not shown) [Example 753, N-(4-{3-[1-(4-Fluoro-phenyl)-ethyl]-thioureido}-phenyl)-3-methoxybenzamide] |  |  |  | > 0.5 |  |  | > 10 | > 7.5 | 
10 | O=C(Nc1ccc(NC(=S)Nc2ccc(Cl)c(C(F)(F)F)c2)cc1)c1c(F)cccc1F [Example 380, N-{4-[3-(4-Chloro-3-trifluoromethyl-phenyl)-thioureido]-phenyl}-2,6-difluoro-benzamide] |  | > 10 |  | > 10 | 50 | > 10 |  |  | 
11 | CCCCOc1cccc(C(=O)Nc2ccc(NC(=S)Nc3cc(Cl)c(OC)cc3OC)cc2)c1 [Example 219, 3-Butoxy-N-{4-[3-(5-chloro-2,4-dimethoxy-phenyl)-thioureido]-phenyl}-benzamide] |  | 2.5 (≈ 4.86 µM) |  | > 10 | 30 | > 10 |  |  | 
12 | C[C@H](NC(=S)Nc1ccc(NC(=O)c2ccccc2F)cc1)c1ccccc1 [Example 1013, 2-Fluoro-N-{4-[3-((1S)-1-phenyl-ethyl)-thioureido]-phenyl}-benzamide] | 8.2 (≈ 20.8 µM) | > 10 | 0.27 (≈ 0.686 µM) |  |  |  |  |  | 
13 | CN(C)c1ccc(NC(=S)Nc2ccc(NC(=O)c3c(F)cccc3F)cc2)cc1Cl [Example 348, N-{4-[3-(3-Chloro-4-dimethylamino-phenyl)-thioureido]-phenyl}-2,6-difluoro-benzamide] |  | 4 (≈ 8.68 µM) |  | 0.8 (≈ 1.74 µM) | 95 | 8 (≈ 17.4 µM) |  |  | 
14 | CC(O)c1cccc(NC(=S)Nc2ccc(NC(=O)c3ccccc3F)cc2)c1 (stereo not shown) [Example 448, 2-Fluoro-N-(4-{3-[3-(1-hydroxy-ethyl)-phenyl]-thioureido}-phenyl)-benzamide] | 9 (≈ 22 µM) | > 10 | > 10 |  |  |  |  |  | 0
15 | COc1cc(OC)c(NC(=S)Nc2ccc(NC(=O)c3cccc(OCCN4CCOCC4)c3)cc2)cc1Cl [Example 258, N-{4-[3-(5-Chloro-2,4-dimethoxy-phenyl)-thioureido]-phenyl}-3-(2-morpholin-4-yl-ethoxy)-benzamide] |  | 1.5 (≈ 2.63 µM) |  | 5 (≈ 8.76 µM) | 92 | 1.5 (≈ 2.63 µM) |  |  | 
16 | COc1cc(OC)c(NC(=S)Nc2ccc(NC(=O)c3c(F)cccc3F)cc2)cc1Cl [Example 140, N-{4-[3-(5-Chloro-2,4-dimethoxy-phenyl)-thioureido]-phenyl}-2,6-difluoro-benzamide] |  | 0.15 (≈ 0.314 µM) |  | 4 (≈ 8.37 µM) | 65 | 10 (≈ 20.9 µM) |  |  | 
17 | CC(NC(=S)Nc1ccc(NC(=O)c2ccccc2F)cc1)c1ccc(S(=O)(=O)N(C)C)cc1 (stereo not shown) [Example 1008, N-(4-{3-[1-(4-Dimethylsulfamoyl-phenyl)-ethyl]-thioureido}-phenyl)-2-fluoro-benzamide] |  |  |  | 8.5 (≈ 17 µM) |  |  | > 10 | > 10 | 
18 | COc1cc(OC)c(NC(=S)Nc2ccc(NC(=O)c3cccc4ccccc34)cc2)cc1Cl [Example 157, Naphthalene-1-carboxylic acid {4-[3-(5-chloro-2,4-dimethoxy-phenyl)-thioureido]-phenyl}-amide] |  | 0.9 (≈ 1.83 µM) |  | 8 (≈ 16.3 µM) | 32 | > 10 |  |  | 
19 | COc1cccc(C(=O)Nc2ccc(NC(=S)Nc3cc(Cl)c(OC)c(Cl)c3)cc2)c1 [Example 875, N-{4-[3-(3,5-Dichloro-4-methoxy-phenyl)-thioureido]-phenyl}-3-methoxy-benzamide] |  | 6 (≈ 12.6 µM) |  | 0.4 (≈ 0.84 µM) | 20 | > 10 |  |  | 
20 | CC(NC(=S)Nc1ccc(NC(=O)c2cc3ccccc3o2)cc1)c1ccc(C#N)cc1 (stereo not shown) [Example 983, Benzofuran-2-carboxylic acid (4-{3-[1-(4-cyano-phenyl)-ethyl]-thioureido}-phenyl)-amide] |  | > 10 |  | 1.1 (≈ 2.5 µM) |  | 0.6 (≈ 1.36 µM) |  |  | 
21 | COc1cc(OC)c(NC(=S)Nc2ccc(NC(=O)c3ccc(F)c(F)c3F)cc2)cc1Cl [Example 192, N-{4-[3-(5-Chloro-2,4-dimethoxy-phenyl)-thioureido]-phenyl}-2,3,4-trifluoro-benzamide] |  | 0.5 (≈ 1.01 µM) |  | > 10 | 14 | > 10 |  |  | 
22 | CC(=O)Oc1ccc(C(=O)Nc2ccc(NC(=S)NC(C)c3ccc(F)cc3)cc2)cc1 (stereo not shown) [Example 757, Acetic acid 4-(4-{3-[1-(4-fluoro-phenyl)-ethyl]-thioureido}-phenylcarbamoyl)-phenyl ester] |  |  |  | > 10 |  |  | > 10 | 1.5 (≈ 3.32 µM) | 
23 | CN(C)CC(=O)Nc1ccc(NC(=S)Nc2ccc(NC(=O)c3ccccc3F)cc2)cc1Cl [Example 362, N-(4-{3-[3-Chloro-4-(2-dimethylamino-acetylamino)-phenyl]-thioureido}-phenyl)-2-fluoro-benzamide] |  | > 10 |  | > 10 | 8 | > 10 |  |  | 
24 | CC(NC(=S)Nc1ccc(NC(=O)c2ccc3ncccc3c2)cc1)c1ccc(F)cc1 (stereo not shown) [Example 990, Quinoline-6-carboxylic acid (4-{3-[1-(4-fluoro-phenyl)-ethyl]-thioureido}-phenyl)-amide] |  | 8.9 (≈ 20 µM) |  | 4.4 (≈ 9.9 µM) |  | 3.5 (≈ 7.87 µM) |  |  | 
25 | C[C@@H](NC(=S)Nc1ccc(NC(=O)c2ccccc2F)cc1)c1ccccc1 [Example 1016, 2-Fluoro-N-{4-[3-((1R)-1-phenyl-ethyl)-thioureido]-phenyl}-benzamide] | 6.4 (≈ 16.3 µM) | > 10 | > 7.5 |  |  |  |  |  | 
26 | CC(NC(=S)Nc1ccc(NC(=O)c2ccccc2F)cc1)c1cccc(C(F)(F)F)c1 (stereo not shown) [Example 786, 2-Fluoro-N-(4-{3-[1-(3-trifluoromethyl-phenyl)-ethyl]-thioureido}-phenyl)-benzamide] | 1.5 (≈ 3.25 µM) | > 10 | > 7.5 |  |  |  |  |  | 
